Assay results published in patent publication US12653815B2, “Luminally-acting N-(piperidin-4-yl)benzamide derivatives” (Takeda Pharmaceutical Company Limited, priority 2020, dated 2026).

Target: T1, human 5-HT4(b) receptor (Homo sapiens, UniProt Q13639)
T1 construct: overexpressing the full-length human 5-HT4(b) receptor with an N-terminal FLAG tag; FLAG (N); host or cells: CHO-K1
Experiment: 5-HT4(b) agonist assay (cAMP accumulation)
Format: cell-based
Settings: CHO-K1 cells overexpressing full-length human 5-HT4(b) receptor; cAMP accumulation after 30 minutes at room temperature; 1 μM 5-HT as 100% activity
Description: One may determine the activity of the compounds of Formula 1 using a variety of methods, including in vitro and in vivo methods. The ability of the example compounds to activate the 5-HT4(b) receptor may be determined using the following assay.
Chinese hamster ovary (CHO-K1) cells overexpressing the full-length human 5-HT4(b) receptor with an N-terminal FLAG tag (Multispan Inc, Hayward, CA) are cultured per the manufacturer's protocol in 1:1 DMEM/F12 (Thermo Fisher, Waltham, MA) with 10% fetal bovine serum (GE Healthcare, Pittsburgh, PA) and 10 μg/mL puromycin (Thermo Fisher, Waltham, MA), and stored in frozen aliquots to be used as assay ready cells. On the day of the assay, cells are removed from frozen storage, washed two times in 1× Kreb's Ringer Buffer (Zenbio, Research Triangle Park, NC), and re-suspended to a concentration of 4×10^6 cells/mL in 1× Kreb's Ringer Buffer. Test compound (50 nL) in 100% DMSO is acoustically dispensed in low volume, white, 384-well polypropylene plates (Corning, Tewksbury, MA), followed by the addition of 4×10^4 cells per well in a total volume of 10 μL. Cells are incubated with test compound for 30 minutes at room temperature in the dark, and cAMP accumulation is measured using the Cisbio HiRange cAMP assay kit (Bedford, MA) per the manufacturer's protocol. Anti-cAMP antibody and d2-cAMP tracer reagents diluted in lysis/detection buffer are incubated in the dark for 1 hour, and results are measured on a Pherastar plate reader (BMG Labtech, Ortenberg, Germany). Data are normalized using 1 μM 5-HT (Sigma Aldrich, St. Louis, MO) as 100% activity, and DMSO alone as 0% activity.
The ability of the example compounds to activate the 5-HT4(b) receptor was evaluated using the assay described in the Biological Activity section. Table 1, below, lists EC50 from the 5-HT4(b) agonist assay for each of the example compounds, where smaller EC50 values represent higher potency.

T1 sequence (Q13639 whole entry): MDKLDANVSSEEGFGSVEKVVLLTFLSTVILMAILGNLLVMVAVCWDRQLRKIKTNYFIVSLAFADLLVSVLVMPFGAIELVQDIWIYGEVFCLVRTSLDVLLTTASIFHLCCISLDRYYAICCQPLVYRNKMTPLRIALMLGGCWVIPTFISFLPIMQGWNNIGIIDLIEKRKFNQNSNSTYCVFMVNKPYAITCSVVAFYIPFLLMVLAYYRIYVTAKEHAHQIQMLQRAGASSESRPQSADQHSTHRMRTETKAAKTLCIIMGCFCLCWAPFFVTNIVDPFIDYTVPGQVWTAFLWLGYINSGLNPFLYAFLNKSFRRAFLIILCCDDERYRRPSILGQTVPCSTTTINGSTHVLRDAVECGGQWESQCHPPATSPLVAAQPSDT

**Q.** Which EC50 does the source give for COc1cc(N)c(Cl)cc1C(=O)N[C@@H]1CCN(CCCCCC(=O)NC[C@H](O)[C@@H](O)[C@H](O)[C@H](O)CO)C[C@@H]1OC [Example 1, 4-amino-5-chloro-2-methoxy-N-((3S,4R)-3-methoxy-1-(6-oxo-6-(((2S,3R,4R,5R)-2,3,4,5,6-pentahydroxyhexyl)amino)hexyl)piperidin-4-yl)benzamide] here?
**A.** The EC50 was 19.8 nM.

**Q.** For COc1cc(N)c(Cl)cc1C(=O)N[C@@H]1CCN(CCCCCC(=O)NCCCCCCCC(=O)NC[C@H](O)[C@@H](O)[C@H](O)[C@H](O)CO)C[C@@H]1OC [Example 2, 4-amino-5-chloro-2-methoxy-N-((3S,4R)-3-methoxy-1-(6-oxo-6-((8-oxo-8-(((2S,3R,4R,5R)-2,3,4,5,6-pentahydroxyhexyl)amino)octyl)amino)hexyl)piperidin-4-yl)benzamide], which EC50 is on record?
**A.** Its EC50 is 21.4 nM.

**Q.** How did the EC50 turn out when COc1cc(N)c(Cl)cc1C(=O)N[C@@H]1CCN(CCCCCC(=O)NCCCCCC(=O)NC[C@H](O)[C@@H](O)[C@H](O)[C@H](O)CO)C[C@@H]1OC [Example 3, 4-amino-5-chloro-2-methoxy-N-((3S,4R)-3-methoxy-1-(6-oxo-6-((6-oxo-6-(((2S,3R,4R,5R)-2,3,4,5,6-pentahydroxyhexyl)amino)hexyl)amino)hexyl)piperidinyl)benzamide] was run?
**A.** Its EC50 is 22.3 nM.

**Q.** For COc1cc(N)c(Cl)cc1C(=O)N[C@@H]1CCN(CCCCCC(=O)NCCCC(=O)NC[C@H](O)[C@@H](O)[C@H](O)[C@H](O)CO)C[C@@H]1OC [Example 4, 4-amino-5-chloro-2-methoxy-N-((3S,4R)-3-methoxy-1-(6-oxo-6-((4-oxo-4-(((2S,3R,4R,5R)-2,3,4,5,6-pentahydroxyhexyl)amino)butyl)amino)hexyl)piperidin-4-yl)benzamide], which EC50 is on record?
**A.** Its EC50 is 28.6 nM.

**Q.** COc1cc(N)c(Cl)cc1C(=O)N[C@@H]1CCN(CCCCCC(=O)NCC(=O)NC[C@H](O)[C@@H](O)[C@H](O)[C@H](O)CO)C[C@@H]1OC [Example 5, 4-amino-5-chloro-2-methoxy-N-((3S,4R)-3-methoxy-1-(6-oxo-6-((2-oxo-2-(((2S,3R,4R,5R)-2,3,4,5,6-pentahydroxyhexyl)amino)ethyl)amino)hexyl)piperidin-4-yl)benzamide] was tested. Which EC50 did it give?
**A.** Its EC50 is 13.2 nM.

**Q.** COc1cc(N)c(Cl)cc1C(=O)N[C@@H]1CCN(CCCCCC(=O)NCCOCCOCCOCCC(=O)NC[C@H](O)[C@@H](O)[C@H](O)[C@H](O)CO)C[C@@H]1OC [Example 6, 4-amino-5-chloro-2-methoxy-N-((3S,4R)-3-methoxy-1-((22S,23R,24R,25R)-22,23,24,25,26-pentahydroxy-6,19-dioxo-10,13,16-trioxa-7,20-diazahexacosyl)piperidin-4-yl)benzamide] was tested. Which EC50 did it give?
**A.** Its EC50 is 22.2 nM.

**Q.** Which EC50 does the source give for COc1cc(N)c(Cl)cc1C(=O)N[C@@H]1CCN(CCCCCC(=O)NCCOCCOCCC(=O)NC[C@H](O)[C@@H](O)[C@H](O)[C@H](O)CO)C[C@@H]1OC [Example 7, 4-amino-5-chloro-2-methoxy-N-((3S,4R)-3-methoxy-1-((19S,20R,21R,22R)-19,20,21,22,23-pentahydroxy-6,16-dioxo-10,13-dioxa-7,17-diazatricosyl)piperidin-4-yl)benzamide] here?
**A.** Its EC50 is 23.4 nM.

**Q.** Which EC50 does the source give for COc1cc(N)c(Cl)cc1C(=O)N[C@@H]1CCN(CCCCCC(=O)NC2CCN(CCCCCCCC(=O)NC[C@H](O)[C@@H](O)[C@H](O)[C@H](O)CO)CC2)C[C@@H]1OC [Example 8, 4-amino-5-chloro-2-methoxy-N-((3S,4R)-3-methoxy-1-(6-oxo-6-((1-(8-oxo-8-(((2S,3R,4R,5R)-2,3,4,5,6-pentahydroxyhexyl)amino)octyl)piperidin-4-yl)amino)hexyl)piperidin-4-yl)benzamide] here?
**A.** Its EC50 is 9.6 nM.

**Q.** COc1cc(N)c(Cl)cc1C(=O)N[C@@H]1CCN(CCCCCC(=O)NC2CCN(CCCCCC(=O)NC[C@H](O)[C@@H](O)[C@H](O)[C@H](O)CO)CC2)C[C@@H]1OC [Example 9, 4-amino-5-chloro-2-methoxy-N-((3S,4R)-3-methoxy-1-(6-oxo-6-((1-(6-oxo-6-(((2S,3R,4R,5R)-2,3,4,5,6-pentahydroxyhexyl)amino)hexyl)piperidinyl)amino)hexyl)piperidin-4-yl)benzamide] was tested. Which EC50 did it give?
**A.** Its EC50 is 8.1 nM.

**Q.** Which EC50 does the source give for COc1cc(N)c(Cl)cc1C(=O)N[C@@H]1CCN(CCCCCC(=O)N(C)C2CCN(CCCCCCCC(=O)NC[C@H](O)[C@@H](O)[C@H](O)[C@H](O)CO)CC2)C[C@@H]1OC [Example 10, 4-amino-5-chloro-2-methoxy-N-((3S,4R)-3-methoxy-1-(6-(methyl(1-(8-oxo-8-(((2S,3R,4R,5R)-2,3,4,5,6-pentahydroxyhexyl)amino)octyl)piperidin-4-yl)amino)-6-oxohexyl)piperidin-4-yl)benzamide] here?
**A.** The EC50 was 26.1 nM.

**Q.** Which EC50 does the source give for COc1cc(N)c(Cl)cc1C(=O)N[C@@H]1CCN(CCCCCC(=O)N(C)C2CCN(CCCCCC(=O)NC[C@H](O)[C@@H](O)[C@H](O)[C@H](O)CO)CC2)C[C@@H]1OC [Example 11, 4-amino-5-chloro-2-methoxy-N-((3S,4R)-3-methoxy-1-(6-(methyl(1-(6-oxo-6-(((2S,3R,4R,5R)-2,3,4,5,6-pentahydroxyhexyl)amino)hexyl)piperidinyl)amino)-6-oxohexyl)piperidin-4-yl)benzamide] here?
**A.** The EC50 was 14.2 nM.

**Q.** With COc1cc(N)c(Cl)cc1C(=O)N[C@@H]1CCN(CCCCCC(=O)N[C@@H]2CCCN(CCCCCCCC(=O)NC[C@H](O)[C@@H](O)[C@H](O)[C@H](O)CO)C2)C[C@@H]1OC [Example 12, 4-amino-5-chloro-2-methoxy-N-((3S,4R)-3-methoxy-1-(6-oxo-6-(((R)-1-(8-oxo-8-(((2S,3R,4R,5R)-2,3,4,5,6-pentahydroxyhexyl)amino)octyl)piperidin-3-yl)amino)hexyl)piperidin-4-yl)benzamide] as the compound, how does the EC50 read?
**A.** Its EC50 is 14.6 nM.

**Q.** COc1cc(N)c(Cl)cc1C(=O)N[C@@H]1CCN(CCCCCC(=O)N[C@@H]2CCCN(CCCCCC(=O)NC[C@H](O)[C@@H](O)[C@H](O)[C@H](O)CO)C2)C[C@@H]1OC [Example 13, 4-amino-5-chloro-2-methoxy-N-((3S,4R)-3-methoxy-1-(6-oxo-6-(((R)-1-(6-oxo-6-(((2S,3R,4R,5R)-2,3,4,5,6-pentahydroxyhexyl)amino)hexyl)piperidin-3-yl)amino)hexyl)piperidin-4-yl)benzamide] was tested. Which EC50 did it give?
**A.** Its EC50 is 12.9 nM.

**Q.** COc1cc(N)c(Cl)cc1C(=O)N[C@@H]1CCN(CCCCCC(=O)N(C)[C@@H]2CCCN(CCCCCCCC(=O)NC[C@H](O)[C@@H](O)[C@H](O)[C@H](O)CO)C2)C[C@@H]1OC [Example 14, 4-amino-5-chloro-2-methoxy-N-((3S,4R)-3-methoxy-1-(6-(methyl((R)-1-(8-oxo-8-(((2S,3R,4R,5R)-2,3,4,5,6-pentahydroxyhexyl)amino)octyl)piperidin-3-yl)amino)-6-oxohexyl)piperidin-4-yl)benzamide] was tested. Which EC50 did it give?
**A.** Its EC50 is 16.8 nM.

**Q.** How did the EC50 turn out when COc1cc(N)c(Cl)cc1C(=O)N[C@@H]1CCN(CCCCCC(=O)N(C)[C@@H]2CCCN(CCCCCC(=O)NC[C@H](O)[C@@H](O)[C@H](O)[C@H](O)CO)C2)C[C@@H]1OC [Example 15, 4-amino-5-chloro-2-methoxy-N-((3S,4R)-3-methoxy-1-(6-(methyl((R)-1-(6-oxo-6-(((2S,3R,4R,5R)-2,3,4,5,6-pentahydroxyhexyl)amino)hexyl)piperidin-3-yl)amino)-6-oxohexyl)piperidin-4-yl)benzamide] was run?
**A.** Its EC50 is 31 nM.

**Q.** Which EC50 does the source give for COc1cc(N)c(Cl)cc1C(=O)N[C@@H]1CCN(CCCCCC(=O)N(C)CCCCCCCC(=O)NC[C@H](O)[C@@H](O)[C@H](O)[C@H](O)CO)C[C@@H]1OC [Example 16, 4-amino-5-chloro-2-methoxy-N-((3S,4R)-3-methoxy-1-(6-(methyl(8-oxo-8-(((2S,3R,4R,5R)-2,3,4,5,6-pentahydroxyhexyl)amino)octyl)amino)-6-oxohexyl)piperidin-4-yl)benzamide] here?
**A.** Its EC50 is 43.3 nM.

**Q.** COc1cc(N)c(Cl)cc1C(=O)N[C@@H]1CCN(CCOCCC(=O)NCCCCCCCC(=O)NC[C@H](O)[C@@H](O)[C@H](O)[C@H](O)CO)C[C@@H]1OC [Example 17, 4-amino-5-chloro-2-methoxy-N-((3S,4R)-3-methoxy-1-(2-(3-oxo ((8-oxo-8-(((2S,3R,4R,5R)-2,3,4,5,6-pentahydroxyhexyl)amino)octyl)amino)propoxy)ethyl)piperidin-4-yl)benzamide] was tested. Which EC50 did it give?
**A.** The EC50 was 202 nM.

**Q.** How did the EC50 turn out when COc1cc(N)c(Cl)cc1C(=O)N[C@@H]1CCN(C(C)CCCCC(=O)NCCCCCCCC(=O)NC[C@H](O)[C@@H](O)[C@H](O)[C@H](O)CO)C[C@@H]1OC (stereo partly drawn) [Example 18, 4-amino-5-chloro-2-methoxy-N-((3S,4R)-3-methoxy-1-(7-oxo-7-((8-oxo-8-(((2S,3R,4R,5R)-2,3,4,5,6-pentahydroxyhexyl)amino)octyl)amino)heptan-2-yl)piperidin-4-yl)benzamide] was run?
**A.** Its EC50 is 150 nM.
